From paper PMC11375437, “Selective labelling of GBA2 in cells with fluorescent β-D-arabinofuranosyl cyclitol aziridines” (Chemical Science, 2024)
“And” between values parts separate entries of the source, which are not always exact repeats. Equal entries are not always repeated. Where two headings read alike, the source gives them in different places.

Target: T1, rhGBA1 (imiglucerase) (Homo sapiens, UniProt P04062, R534H)
T1 construct: purchased Sanofi Genzyme (gift) Cerezyme®
T1 sequence (P04062 40-536 R534H): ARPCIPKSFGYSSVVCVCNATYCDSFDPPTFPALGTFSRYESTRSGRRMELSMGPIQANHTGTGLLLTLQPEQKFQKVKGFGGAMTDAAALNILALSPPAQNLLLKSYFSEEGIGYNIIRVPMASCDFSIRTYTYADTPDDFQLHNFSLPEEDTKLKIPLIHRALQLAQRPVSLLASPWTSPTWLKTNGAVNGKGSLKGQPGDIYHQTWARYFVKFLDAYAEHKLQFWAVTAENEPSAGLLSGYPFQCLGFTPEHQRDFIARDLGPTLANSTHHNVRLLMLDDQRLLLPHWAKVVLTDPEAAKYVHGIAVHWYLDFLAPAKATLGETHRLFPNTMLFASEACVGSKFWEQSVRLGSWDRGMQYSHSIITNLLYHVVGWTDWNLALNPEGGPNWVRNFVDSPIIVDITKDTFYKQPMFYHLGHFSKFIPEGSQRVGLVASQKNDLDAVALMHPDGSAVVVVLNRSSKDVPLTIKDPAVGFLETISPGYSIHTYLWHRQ
Experiment: 4MU fluorogenic substrate assay for apparent IC50, rhGBA1
Type: biochemical
Conditions: 30 min pre-incubation, 4MU-β-D-Glc
Text: To identify an ABP that selectively labels human GBA2 over GBA1 and GBA3, a library of cyclophellitol-based ABPs with varying configurations (ESI Fig. S1 ^†) was screened for their selectivity towards human retaining β-glucosidases. For this purpose, we initially assessed the inhibition properties of the compounds using recombinant human GBA1 (rhGBA1, imiglucerase), lysates of cells overexpressing GBA2 or GBA3 (both in combination with knockout of the other retaining β-glucosidases). In a preliminary screen, enzymes were pre-incubated for 30 min with the tested compounds, followed by the addition of the fluorogenic substrate, 4MU-β-D-Glc, and subsequent quantification of released fluorescent 4MU after 30 minutes. This screening brought our attention to a new set of β-D-Araf cyclitol aziridines as potential GBA2 inhibitors. […] On the other hand, the biotin-tagged β-D-Araf compound 6 is a poor inhibitor of all three glucosidases (apparent IC50 > 8 μM). Arabinofuranosyl cyclitol 12–20 with various configurations (α-L-Araf and β-L-Araf) were also evaluated (ESI Fig. S1 ^†).
Recombinant human GBA1 (rhGBA1, Imiglucerase) was kindly provided by Sanofi Genzyme (Cambridge, MA, USA). 4-Methylumbelliferyl-β-D-glucopyranoside substrates were purchase from Glycosynth (Warrington Cheshire, UK). Protein concentration was measured using the Pierce BCA assay kit (Thermo Fisher Scientific, Waltham, MA, USA). Harvested cells (cell pellets), cell lysates and tissue homogenates not used directly were stored at -80 °C. […]
2.5 4MU fluorogenic substrate assay for apparent IC50 determination
4MU fluorogenic substrate assays (using recombination human rhGBA1 or lysates of HEK293T cells) were conducted in 96-well plates at 37 °C. Samples were diluted with McIlvaine buffer (150 mM citric acid-Na2HPO4) to a final volume of 25 μL, at the appropriate pH for each enzyme. Assays were performed by incubating the samples with 100 μL 4-methylumbelliferyl-β-D-glucopyranoside substrate diluted in McIlvaine buffer for a period of 30 min. Enzyme activities and apparent IC50 values were determined by subtraction of the background (measured for incubations without enzyme) as previously described.4 The substrate mixtures used for each enzyme were as follows:
GBA1: 3.75 mM 4-MU-β-D-glucopyranoside in McIlvaine buffer (150 mM, pH 5.2, supplemented with 0.2% (w/v) sodium taurocholate, 0.1% (v/v) Triton X-100, 0.1% (w/v) bovine serum albumin (BSA)); GBA2: 3.75 mM 4 MU-β-D-glucopyranoside in McIlvaine buffer (150 mM, pH 5.8); GBA3: 3.75 mM 4-MU-β-D-glucopyranoside in McIlvaine buffer (150 mM, pH 6.0). To determine apparent IC50: For GBA1, 3.16 ng (53 fmol) of rhGBA1 (recombinant human GBA1, Imiglucerase) was prepared in 12.5 μL McIlvaine buffer (150 mM, pH 5.2, supplemented with 0.1% (v/v) Triton X-100, 0.2% (w/v) sodium taurocholate, and 0.1% (w/v) bovine serum albumin (BSA)). The enzyme was incubated with 12.5 μL […]
of inhibitors diluted in McIlvaine buffer (150 mM, pH 5.2) at 37 °C for 30 min or 3 h. For GBA2, lysates of GBA1/GBA2 KO HEK293T cells with GBA2 overexpression were prepared in 12.5 μL McIlvaine buffer (150 mM, pH 5.8), and incubated with 12.5 μL of inhibitors diluted in McIlvaine buffer (150 mM, pH 5.8) at 37 °C for 30 min or 3 h. For GBA3, lysates of GBA1/GBA2 KO HEK293T cells with GBA3 overexpression were prepared in 12.5 μL McIlvaine buffer (150 mM, pH 6.0), and incubated with 12.5 μL of inhibitors diluted in McIlvaine buffer (150 mM, pH 6.0) at 37 °C for 30 min or 3 h. Subsequently, the samples were incubated with 100 μL 4-methylumbelliferyl-β-D-glucopyranoside substrates dissolved in McIlvaine buffer described above for a period of 30 min. After stopping the enzyme reaction with 200 μL 1 M NaOH-glycine (pH 10.3), 4-methylumbelliferone fluorescence was measured with a fluorimeter LS55 (Perkin Elmer, Waltham, MA, USA) with λEX 366 nm and λEM 445 nm. The IC50 value was calculated using Graphpad Prism 9.0 with the Nonlinear regression (curve fit) - […]

[1] = imiglucerase (Cerezyme), pH 5.2, n = 3 for β-D-Araf, n = 1 for α-L-Araf and β-L-Araf, read-out: Apparent IC50 rhGBA1

Structure (SMILES) | IC50 [1] | IC50 (read-out: Apparent IC50 GBA1) [µM]
[N-]=[N+]=NCCCCCCCCN1[C@@H]2[C@H](CO)[C@@H](O)[C@H](O)[C@@H]21 (stereo partly drawn) [Compound 2, β-D-arabinofuranosyl cyclitol aziridine-azidooctyl] | 2.73 µM | –
CC1=CC(C)=[N+]2C1=C(CCCCc1cn(CCCCCCCCN3[C@@H]4[C@H](CO)[C@@H](O)[C@H](O)[C@@H]43)nn1)c1c(C)cc(C)n1[B-]2(F)F (some centres unmarked) [ABP 3] | 4.29 ± 0.157 µM | –
COc1ccc(C2=[N+]3C(=C(CCCCc4cn(CCCCCCCCN5[C@@H]6[C@H](CO)[C@@H](O)[C@H](O)[C@@H]65)nn4)c4ccc(-c5ccc(OC)cc5)n4[B-]3(F)F)C=C2)cc1 (some centres unmarked) [ABP 4] | 1.78 ± 0.071 µM | –
OC[C@@H]1[C@@H](O)[C@H](O)[C@@H]2N[C@H]12 [Compound 1, β-D-Arabinofuranosyl cyclitol aziridine] | > 50 µM | > 50
CN1/C(=C/C=C/C=C/C2=[N+](CCCCCC(=O)NCc3cn(CCCCCCCCN4[C@@H]5[C@H](CO)[C@@H](O)[C@H](O)[C@@H]54)nn3)c3ccccc3C2(C)C)C(C)(C)c2ccccc21 (some centres unmarked) [ABP 5] | 0.25 to 0.3 µM and 0.295 µM | –
O=C(CCCC[C@@H]1SC[C@@H]2NC(=O)N[C@@H]21)NCc1cn(CCCCCCCCN2[C@@H]3[C@H](CO)[C@@H](O)[C@H](O)[C@@H]32)nn1 (some centres unmarked) [ABP 6] | 10.7 ± 0.786 µM | > 8
